# According to patent US20200291018A1, “TAM KINASE INHIBITORS” (SYROS PHARMACEUTICALS, INC., priority 2017, published 2020):
# Key:
# AXL = biological target: T1, AXL (Homo sapiens, UniProt P30530); experiment: TR-FRET kinase activity assay, AXL; assay type: biochemical; conditions: ATP at Km, 60 minutes
# T1 sequence (P30530 26-894): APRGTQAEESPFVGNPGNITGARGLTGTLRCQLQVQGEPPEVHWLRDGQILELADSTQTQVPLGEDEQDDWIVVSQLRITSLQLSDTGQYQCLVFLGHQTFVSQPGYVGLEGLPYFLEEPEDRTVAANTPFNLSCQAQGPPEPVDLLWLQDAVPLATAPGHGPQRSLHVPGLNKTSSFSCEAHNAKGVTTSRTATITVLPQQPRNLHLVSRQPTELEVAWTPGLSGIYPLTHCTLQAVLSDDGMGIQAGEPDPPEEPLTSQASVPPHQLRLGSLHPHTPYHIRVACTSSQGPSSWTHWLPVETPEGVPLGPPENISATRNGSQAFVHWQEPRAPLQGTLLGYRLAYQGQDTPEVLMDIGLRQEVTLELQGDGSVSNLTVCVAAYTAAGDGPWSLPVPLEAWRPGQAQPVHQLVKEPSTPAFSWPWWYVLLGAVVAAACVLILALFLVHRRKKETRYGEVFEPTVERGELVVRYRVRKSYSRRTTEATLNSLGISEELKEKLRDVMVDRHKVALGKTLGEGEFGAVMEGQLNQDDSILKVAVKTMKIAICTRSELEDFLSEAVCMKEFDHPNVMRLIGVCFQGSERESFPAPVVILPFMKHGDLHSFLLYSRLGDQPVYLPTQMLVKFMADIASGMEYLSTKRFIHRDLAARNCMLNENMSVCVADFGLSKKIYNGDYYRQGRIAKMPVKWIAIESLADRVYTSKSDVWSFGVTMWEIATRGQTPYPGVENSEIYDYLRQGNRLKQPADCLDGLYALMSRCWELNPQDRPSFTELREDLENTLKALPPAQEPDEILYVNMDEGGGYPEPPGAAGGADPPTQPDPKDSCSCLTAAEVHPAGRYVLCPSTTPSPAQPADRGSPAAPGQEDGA
# Procedure, shortened: (§1)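 IC50s come from loss of TR-FRET between a Eu-labeled phospho-site antibody and fluorescent tyrosine-phosphorylated peptide. Kinase reactions, initiated with Km ATP, ran 60 min at RT at pH 7.5 before EDTA quench.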
# FLT3 = biological target: T2, FLT3 (Homo sapiens, UniProt P36888); experiment: TR-FRET kinase activity assay, FLT3; assay type: biochemical; conditions: ATP at Km, 60 minutes
# T2 sequence (P36888 27-993): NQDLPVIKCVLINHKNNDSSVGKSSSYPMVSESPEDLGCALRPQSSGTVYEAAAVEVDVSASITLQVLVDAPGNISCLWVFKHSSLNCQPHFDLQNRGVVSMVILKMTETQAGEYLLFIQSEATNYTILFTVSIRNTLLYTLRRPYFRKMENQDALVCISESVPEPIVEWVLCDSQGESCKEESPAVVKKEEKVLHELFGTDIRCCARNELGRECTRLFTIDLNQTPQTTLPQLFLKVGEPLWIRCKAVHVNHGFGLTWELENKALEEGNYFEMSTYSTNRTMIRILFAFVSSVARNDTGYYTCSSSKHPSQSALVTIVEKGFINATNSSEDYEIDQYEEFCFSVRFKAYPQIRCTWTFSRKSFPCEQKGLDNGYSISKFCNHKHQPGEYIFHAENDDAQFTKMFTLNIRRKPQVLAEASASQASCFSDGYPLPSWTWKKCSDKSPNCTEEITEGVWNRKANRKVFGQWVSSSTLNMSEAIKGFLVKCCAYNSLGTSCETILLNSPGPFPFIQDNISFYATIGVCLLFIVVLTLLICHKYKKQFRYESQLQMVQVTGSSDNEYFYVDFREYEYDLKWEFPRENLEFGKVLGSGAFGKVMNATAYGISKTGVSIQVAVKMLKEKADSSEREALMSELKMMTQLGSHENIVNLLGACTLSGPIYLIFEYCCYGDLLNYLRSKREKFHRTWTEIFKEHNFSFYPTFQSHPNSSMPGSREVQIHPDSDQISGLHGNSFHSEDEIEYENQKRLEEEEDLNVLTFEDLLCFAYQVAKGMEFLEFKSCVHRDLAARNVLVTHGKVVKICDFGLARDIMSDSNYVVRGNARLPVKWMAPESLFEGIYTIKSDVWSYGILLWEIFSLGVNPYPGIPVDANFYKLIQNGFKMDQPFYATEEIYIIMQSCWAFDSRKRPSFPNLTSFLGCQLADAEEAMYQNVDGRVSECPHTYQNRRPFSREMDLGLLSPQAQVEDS
# Procedure, shortened: as §1
SMILES,IC50 (AXL),IC50 (FLT3)
COC[C@H](C)Nc1ncc2c(O[C@H]3C[C@H](O)C3)ncc([C@H]3CC[C@H](O)CC3)c2n1 [Compound 295],100 to 1000 nM,1000 to 10000 nM
COC[C@H](C)Nc1ncc2c(O[C@H]3C[C@@H](O)C3)ncc([C@H]3CC[C@H](O)CC3)c2n1 [Compound 296],100 to 1000 nM,1000 to 10000 nM
CNC(=O)Nc1ccc(-c2cnc(OC3CCOCC3)c3cnc(N[C@@H](C)COC)nc23)cc1 [Compound 297],1000 to 10000 nM,1000 to 10000 nM
CC[C@H](C)Nc1ncc2c(O[C@H]3CC[C@@H](N(C)C)C3)ncc([C@H]3CC[C@H](O)CC3)c2n1 [Compound 298],100 to 1000 nM,1000 to 10000 nM
O[C@H]1CC[C@H](c2cnc(OC3CCNCC3)c3cnc(Nc4ccc(Cl)c(Cl)c4)nc32)CC1 [Compound 299],≤ 100 nM,≤ 100 nM
CCc1cc(Nc2ncc3c(OC4CCNCC4)ncc([C@H]4CC[C@H](O)CC4)c3n2)ccc1Cl [Compound 300],≤ 100 nM,100 to 1000 nM
COC[C@H](C)Nc1ncc2c(OC3CCOCC3)ncc(-c3ccc(O)cc3)c2n1 [Compound 301],1000 to 10000 nM,1000 to 10000 nM
COC[C@H](C)Nc1ncc2c(O[C@H]3CCNCC3(F)F)ncc([C@H]3CC[C@H](O)CC3)c2n1 [Compound 302],1000 to 10000 nM,1000 to 10000 nM
COC[C@H](C)Nc1ncc2c(C)ncc([C@H]3CC[C@H](O)CC3)c2n1 [Compound 303],100 to 1000 nM,1000 to 10000 nM
C[C@@H](CF)Nc1ncc2c(OC3CCOCC3)ncc([C@H]3CC[C@H](O)CC3)c2n1 [Compound 304],100 to 1000 nM,1000 to 10000 nM
C[C@@H](CC(F)(F)F)Nc1ncc2c(OC3CCOCC3)ncc([C@H]3CC[C@H](O)CC3)c2n1 [Compound 305],100 to 1000 nM,100 to 1000 nM
CC[C@H](C)Nc1ncc2c(OC3CCN(c4ncccn4)CC3)ncc([C@H]3CC[C@H](O)CC3)c2n1 [Compound 306],100 to 1000 nM,1000 to 10000 nM
"COC[C@H](C)Nc1ncc2c(OC3CCOCC3)ncc(-c3cccc(S(=O)(=O)N(C)C)c3)c2n1 [Compound 307, (S)-3-(2-((1-methoxypropan-2-yl)amino)-5-((tetrahydro-2H-pyran-4-yl)oxy)pyrido[4,3-d]pyrimidin-8-yl)-N,N-dimethylbenzenesulfonamide]",1000 to 10000 nM,1000 to 10000 nM
COC[C@H](C)Nc1ncc2c(O[C@@H]3CCNCC3(F)F)ncc([C@H]3CC[C@H](O)CC3)c2n1 [Compound 308],1000 to 10000 nM,1000 to 10000 nM
COC[C@H](C)Nc1ncc2c(OC3CCOCC3)ncc(-c3ccc(N)cc3)c2n1 [Compound 309],1000 to 10000 nM,1000 to 10000 nM
COCCN1C(C)(C)CC(Oc2ncc([C@H]3CC[C@H](O)CC3)c3nc(N[C@@H](C)COC)ncc23)CC1(C)C [Compound 310],≤ 100 nM,1000 to 10000 nM
C[C@@H](CCF)Nc1ncc2c(OC3CCOCC3)ncc([C@H]3CC[C@H](O)CC3)c2n1 [Compound 311],100 to 1000 nM,1000 to 10000 nM
COCC[C@H](C)Nc1ncc2c(OC3CCOCC3)ncc([C@H]3CC[C@H](O)CC3)c2n1 [Compound 312],1000 to 10000 nM,1000 to 10000 nM
CC(C)Nc1ncc2c(OC3CCOCC3)ncc(-c3cccc(S(C)(=O)=O)c3)c2n1 [Compound 313],100 to 1000 nM,1000 to 10000 nM
COC[C@H](C)Nc1ncc2c(OC3CCOCC3)ncc(-c3cnn([C@@H]4CCN(C)C4)c3)c2n1 [Compound 314],1000 to 10000 nM,1000 to 10000 nM
COC[C@H](C)Nc1ncc2c(OC3CCOCC3)ncc([C@H]3CC[C@H](NC(C)=O)CC3)c2n1 [Compound 315],1000 to 10000 nM,1000 to 10000 nM
